Reference: patent US10407446B2, “Amino-triazolopyridine compounds and their use in treating cancer” (AstraZeneca AB, priority 2016, dated 2019)
Like-named read-outs stand apart in the source and are kept apart here.

Key:
AURKA (Aurora A) = AURKA (Aurora A) (Homo sapiens (Human), UniProt O14965); test: Aurora-A enzyme assay (Z'-LYTE); assay type: biochemical; details: 10 μM ATP; mean of at least 2 experiments; read-out: AurA enz pIC50 (converted)
Description: (§1) d) Aurora-A, Aurora-B, JAK1, JAK2, JAK3 Enzyme Assays
(§2) The inhibitory activity of compounds against AURKA, AURKB, JAK1, JAK2 and JAK3 was determined in Z′-LYTE® assays run by ThermoFisher Scientific as part of their SelectScreen® Biochemical Kinase Profiling Service. The Z′-LYTE® biochemical assay format employs a fluorescence-based, coupled-enzyme format and is based on the differential sensitivity of phosphorylated and non-phosphorylated peptides to proteolytic cleavage. The peptide substrate is labeled with two fluorophores—one at each end—that make up a FRET pair. In the primary reaction, the kinase transfers the gamma-phosphate of ATP to a single tyrosine, serine or threonine residue in a synthetic FRET-peptide. In the secondary reaction, a site-specific protease recognises and cleaves non-phosphorylated FRET-peptides. Phosphorylation of FRET-peptides suppresses cleavage by the Development Reagent. Cleavage disrupts FRET between the donor (i.e., coumarin) and acceptor (i.e., fluorescein) fluorophores on the FRET-peptide, whereas uncleaved, phosphorylated FRET-peptides maintain FRET. A ratiometric method, which calculates the ratio (the Emission Ratio) of donor emission to acceptor emission after excitation of the donor fluorophore at 400 nm, is used to quantitate reaction progress. Both cleaved and uncleaved FRET-peptides contribute to the fluorescence signals and therefore to the Emission Ratio. The extent of phosphorylation of the FRET-peptide can be calculated from the Emission Ratio.
(§3) 2.4 μL Kinase Buffer (50 mM HEPES pH 7.5, 0.01% BRIJ-35, 10 mM MgCl2, 1 mM EGTA), 5 μL 2× Peptide/Kinase mixture (detailed below for each kinase) and 2.5 μL 4× ATP Solution (prepared in Kinase Buffer) were added separately to the compound plates, placed on a plate shaker for 30 sec, and then incubated for 60 mins at room temperature. […] Assay plates were placed on a plate shaker for 30 sec, incubated for 60 mins at room temperature, and then read using a fluorescence plate reader.

TTK = TTK (Homo sapiens (Human), UniProt P33981); test: TTK enzyme assay (LanthaScreen Eu Kinase Binding assay); details: mean of at least 2 experiments
Chain of TTK (P33981 whole entry): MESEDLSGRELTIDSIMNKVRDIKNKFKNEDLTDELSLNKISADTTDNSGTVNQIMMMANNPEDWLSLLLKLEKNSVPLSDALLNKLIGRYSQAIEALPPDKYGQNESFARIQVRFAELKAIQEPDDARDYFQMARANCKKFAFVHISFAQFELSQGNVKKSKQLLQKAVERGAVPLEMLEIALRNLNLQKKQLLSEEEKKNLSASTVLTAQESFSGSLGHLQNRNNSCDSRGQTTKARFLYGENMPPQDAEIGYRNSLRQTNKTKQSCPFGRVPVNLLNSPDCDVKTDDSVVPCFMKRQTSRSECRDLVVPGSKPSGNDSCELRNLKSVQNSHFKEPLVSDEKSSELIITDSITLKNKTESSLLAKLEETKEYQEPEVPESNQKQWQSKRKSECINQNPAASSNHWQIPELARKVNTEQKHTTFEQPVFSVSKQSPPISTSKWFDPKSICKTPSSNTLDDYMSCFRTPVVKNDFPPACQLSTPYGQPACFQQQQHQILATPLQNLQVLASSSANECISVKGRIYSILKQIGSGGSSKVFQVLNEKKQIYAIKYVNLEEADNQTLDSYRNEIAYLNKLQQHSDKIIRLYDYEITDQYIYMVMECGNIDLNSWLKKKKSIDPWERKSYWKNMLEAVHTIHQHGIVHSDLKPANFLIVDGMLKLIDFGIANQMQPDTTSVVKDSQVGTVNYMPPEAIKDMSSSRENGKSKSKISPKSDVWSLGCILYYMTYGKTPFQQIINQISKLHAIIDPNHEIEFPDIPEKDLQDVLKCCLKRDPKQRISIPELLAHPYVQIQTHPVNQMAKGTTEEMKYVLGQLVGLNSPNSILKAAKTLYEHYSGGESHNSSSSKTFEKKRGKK
Text: The LanthaScreen® Eu Kinase Binding assay format uses binding of an Alexa Fluor® conjugate or “tracer” to a kinase, which is detected by addition of a Eu-labeled anti-tag antibody. […] The degree of FRET measured in the assay is used to determine the binding of a compound.
Plates were then read using a fluorescence plate reader.

JAK3 = JAK3 (Homo sapiens (Human), UniProt P52333); test: JAK3 enzyme assay (Z'-LYTE); assay type: biochemical; details: 10 μM ATP; mean of at least 2 experiments; read-out: JAK3 enz pIC50 (converted)
Chain of JAK3 (P52333 whole entry): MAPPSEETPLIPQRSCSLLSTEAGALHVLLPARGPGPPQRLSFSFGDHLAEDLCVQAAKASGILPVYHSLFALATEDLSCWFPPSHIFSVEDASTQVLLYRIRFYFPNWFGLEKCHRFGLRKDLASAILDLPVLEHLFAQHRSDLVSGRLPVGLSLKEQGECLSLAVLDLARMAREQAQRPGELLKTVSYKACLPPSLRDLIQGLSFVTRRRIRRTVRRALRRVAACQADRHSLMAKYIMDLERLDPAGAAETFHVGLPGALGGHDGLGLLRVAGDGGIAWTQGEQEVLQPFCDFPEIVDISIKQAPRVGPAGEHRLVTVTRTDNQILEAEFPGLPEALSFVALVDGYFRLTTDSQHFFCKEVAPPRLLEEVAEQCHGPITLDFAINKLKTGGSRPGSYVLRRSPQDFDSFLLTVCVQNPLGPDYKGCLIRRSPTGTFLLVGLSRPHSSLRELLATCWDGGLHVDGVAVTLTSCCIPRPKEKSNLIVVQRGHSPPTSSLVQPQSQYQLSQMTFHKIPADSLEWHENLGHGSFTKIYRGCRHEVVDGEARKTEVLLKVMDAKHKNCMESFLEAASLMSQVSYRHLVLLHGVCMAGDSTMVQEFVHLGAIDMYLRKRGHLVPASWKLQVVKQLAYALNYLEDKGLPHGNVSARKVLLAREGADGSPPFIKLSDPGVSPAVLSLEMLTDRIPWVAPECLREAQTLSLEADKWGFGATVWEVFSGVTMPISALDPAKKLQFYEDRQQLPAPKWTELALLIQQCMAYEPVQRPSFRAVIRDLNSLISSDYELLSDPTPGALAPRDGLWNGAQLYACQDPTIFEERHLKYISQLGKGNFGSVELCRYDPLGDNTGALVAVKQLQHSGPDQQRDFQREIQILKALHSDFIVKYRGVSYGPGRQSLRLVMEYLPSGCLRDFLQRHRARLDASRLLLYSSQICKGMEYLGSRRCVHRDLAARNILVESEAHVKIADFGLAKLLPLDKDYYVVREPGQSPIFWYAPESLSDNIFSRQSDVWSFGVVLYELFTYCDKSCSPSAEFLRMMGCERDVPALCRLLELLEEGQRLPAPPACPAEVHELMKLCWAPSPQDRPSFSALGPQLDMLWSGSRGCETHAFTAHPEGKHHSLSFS
Text: The 2× AURKB (Aurora B)/Ser/[…]

AURKB (Aurora B) = AURKB (Aurora B) (Homo sapiens (Human), UniProt Q96GD4); test: Aurora-B enzyme assay (Z'-LYTE); assay type: biochemical; details: 75 μM ATP; mean of at least 2 experiments; read-out: AurB enz pIC50 (converted)
Chain of AURKB (Aurora B) (Q96GD4 whole entry): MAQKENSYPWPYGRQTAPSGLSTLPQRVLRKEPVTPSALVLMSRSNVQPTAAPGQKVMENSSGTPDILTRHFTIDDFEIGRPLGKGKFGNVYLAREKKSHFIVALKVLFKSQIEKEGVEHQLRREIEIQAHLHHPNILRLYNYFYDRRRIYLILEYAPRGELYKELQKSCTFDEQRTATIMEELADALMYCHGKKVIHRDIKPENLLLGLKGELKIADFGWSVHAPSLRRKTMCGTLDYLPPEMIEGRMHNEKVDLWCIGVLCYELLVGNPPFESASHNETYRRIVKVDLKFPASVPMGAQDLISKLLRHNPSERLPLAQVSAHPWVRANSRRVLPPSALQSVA
Description: as §1, §2, §3

JAK2 = JAK2 (Homo sapiens (Human), UniProt O60674); test: JAK2 enzyme assay (Z'-LYTE); assay type: biochemical; details: 25 μM ATP; mean of at least 2 experiments; read-out: JAK2 enz pIC50 (converted)
Chain of JAK2 (O60674 whole entry): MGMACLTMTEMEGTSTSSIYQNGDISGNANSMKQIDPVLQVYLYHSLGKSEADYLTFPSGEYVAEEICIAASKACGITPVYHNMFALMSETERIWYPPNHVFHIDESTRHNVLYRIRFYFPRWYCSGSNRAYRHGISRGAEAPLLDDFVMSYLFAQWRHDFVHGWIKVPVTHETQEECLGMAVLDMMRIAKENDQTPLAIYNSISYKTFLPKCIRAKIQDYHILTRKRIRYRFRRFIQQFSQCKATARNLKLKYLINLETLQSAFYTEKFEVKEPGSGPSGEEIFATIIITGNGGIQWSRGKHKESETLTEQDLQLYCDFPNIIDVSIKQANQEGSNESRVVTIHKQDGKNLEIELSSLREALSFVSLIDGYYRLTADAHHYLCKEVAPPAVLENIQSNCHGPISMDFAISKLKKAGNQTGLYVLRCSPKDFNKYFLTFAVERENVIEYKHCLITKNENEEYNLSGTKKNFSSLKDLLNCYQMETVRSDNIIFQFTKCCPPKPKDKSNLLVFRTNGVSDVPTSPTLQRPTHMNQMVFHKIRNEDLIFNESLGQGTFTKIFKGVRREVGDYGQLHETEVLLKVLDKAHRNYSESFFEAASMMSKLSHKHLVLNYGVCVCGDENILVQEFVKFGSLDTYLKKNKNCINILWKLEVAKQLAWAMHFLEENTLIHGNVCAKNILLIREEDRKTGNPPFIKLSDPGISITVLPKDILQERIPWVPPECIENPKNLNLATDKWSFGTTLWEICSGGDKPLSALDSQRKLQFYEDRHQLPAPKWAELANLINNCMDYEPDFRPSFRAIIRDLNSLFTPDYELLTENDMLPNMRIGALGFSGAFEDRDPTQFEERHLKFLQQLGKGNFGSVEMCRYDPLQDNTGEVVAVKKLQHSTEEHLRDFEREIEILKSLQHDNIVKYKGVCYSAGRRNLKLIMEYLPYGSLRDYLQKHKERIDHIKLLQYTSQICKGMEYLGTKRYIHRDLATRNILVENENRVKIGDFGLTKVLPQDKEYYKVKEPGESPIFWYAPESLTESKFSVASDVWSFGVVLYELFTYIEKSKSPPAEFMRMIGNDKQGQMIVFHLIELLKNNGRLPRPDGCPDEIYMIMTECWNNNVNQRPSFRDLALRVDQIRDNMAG
Description: as §1, §2, §3

JAK1 = JAK1 (Homo sapiens (Human), UniProt P23458); test: JAK1 enzyme assay (Z'-LYTE); assay type: biochemical; details: 75 μM ATP; mean of at least 2 experiments; read-out: JAK1 enz pIC50 (converted)
Chain of JAK1 (P23458 whole entry): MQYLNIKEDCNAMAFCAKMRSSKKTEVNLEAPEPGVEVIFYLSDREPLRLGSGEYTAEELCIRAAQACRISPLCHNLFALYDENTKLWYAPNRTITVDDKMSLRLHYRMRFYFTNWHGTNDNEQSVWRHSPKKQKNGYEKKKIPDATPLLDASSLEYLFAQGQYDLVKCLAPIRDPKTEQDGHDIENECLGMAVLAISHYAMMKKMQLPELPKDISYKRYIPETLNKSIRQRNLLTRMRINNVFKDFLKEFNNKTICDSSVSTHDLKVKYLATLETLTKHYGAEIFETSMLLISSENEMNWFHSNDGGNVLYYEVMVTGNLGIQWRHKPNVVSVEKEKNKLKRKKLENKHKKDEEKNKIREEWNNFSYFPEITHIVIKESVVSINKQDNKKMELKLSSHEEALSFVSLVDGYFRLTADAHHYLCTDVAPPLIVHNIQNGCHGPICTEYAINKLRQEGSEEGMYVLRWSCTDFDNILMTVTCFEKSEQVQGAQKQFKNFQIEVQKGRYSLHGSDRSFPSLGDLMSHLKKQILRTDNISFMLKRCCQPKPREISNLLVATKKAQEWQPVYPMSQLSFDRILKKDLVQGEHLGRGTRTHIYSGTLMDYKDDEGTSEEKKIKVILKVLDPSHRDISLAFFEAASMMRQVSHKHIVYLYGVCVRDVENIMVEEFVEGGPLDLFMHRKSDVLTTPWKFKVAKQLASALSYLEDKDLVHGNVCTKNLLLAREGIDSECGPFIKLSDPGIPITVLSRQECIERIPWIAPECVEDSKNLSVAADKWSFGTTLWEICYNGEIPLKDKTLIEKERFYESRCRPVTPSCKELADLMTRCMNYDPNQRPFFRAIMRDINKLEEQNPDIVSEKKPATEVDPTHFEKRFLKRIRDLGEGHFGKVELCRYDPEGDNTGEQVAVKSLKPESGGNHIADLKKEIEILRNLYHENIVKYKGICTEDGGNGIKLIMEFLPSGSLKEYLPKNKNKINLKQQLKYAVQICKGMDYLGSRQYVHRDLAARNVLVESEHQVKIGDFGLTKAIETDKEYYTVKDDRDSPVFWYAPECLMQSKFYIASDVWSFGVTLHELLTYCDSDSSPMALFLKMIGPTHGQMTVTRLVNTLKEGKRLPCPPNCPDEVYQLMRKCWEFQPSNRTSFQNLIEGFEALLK
Description: as §1, §2, §3

DNAPK [1] = target: T1, DNAPK (Homo sapiens (Human), UniProt P78527); assay type: biochemical; details: mean of at least 2 experiments; 18 μM ATP; read-out: DNA-PK enz pIC50 (converted)
Text: The following assays were used to measure the effects of the compounds described herein: a) DNAPK enzyme potency assay; b) DNAPK cellular potency assay. During the description of the assays, generally: • i. The following abbreviations have been used; DMSO=Dimethyl Sulphoxide; DTT=Dithiothreitol; EDTA=Ethylenediaminetetraacetic Acid, TR-FRET=Time Resolved Fluorescence Resonance Energy Transfer, ATP=Adenosine triphosphate, DTT=Dithiothreitol, DNA=Deoxyribonucleic acid, HEPES=(2-hydroxyethyl)-1-piperazineethanesulfonic acid • ii.

DNAPK [2] = target: T1, DNAPK; test: DNAPK cellular potency assay (DNA-PK cell), pS2056-DNAPK ELISA in irradiated A549 cells; assay type: cell-based; details: A549 cell line, 8 Gy radiation, mean of at least 2 experiments, read-out: DNA-PK cell pIC50 (converted)

Chain of AURKA (Aurora A) (O14965 whole entry): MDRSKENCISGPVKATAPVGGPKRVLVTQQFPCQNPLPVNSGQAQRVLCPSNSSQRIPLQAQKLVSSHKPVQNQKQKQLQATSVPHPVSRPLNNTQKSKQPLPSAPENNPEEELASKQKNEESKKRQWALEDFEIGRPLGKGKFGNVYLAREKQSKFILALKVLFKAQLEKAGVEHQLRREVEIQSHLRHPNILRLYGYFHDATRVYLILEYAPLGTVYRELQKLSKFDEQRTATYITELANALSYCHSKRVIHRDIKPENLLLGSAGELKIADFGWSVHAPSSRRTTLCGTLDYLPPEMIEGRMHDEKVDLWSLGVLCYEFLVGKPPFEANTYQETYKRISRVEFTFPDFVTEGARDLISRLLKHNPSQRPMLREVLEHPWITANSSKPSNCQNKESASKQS

Row | Compound | IC50 (AURKA (Aurora A)) | TTK enz pIC50 (TTK) | IC50 (JAK3) | IC50 (AURKB (Aurora B)) | IC50 (JAK2) | IC50 (JAK1) | IC50 (DNAPK [1]) | IC50 (DNAPK [2]) | IC50 (TTK; read-out: TTK enz pIC50 (converted))
1 | Cc1cc2ncnn2cc1Nc1ncc2c(n1)n([C@H]1CC[C@H](O)CC1)c(=O)n2C [Example 1, 9-((1r,4r)-4-hydroxycyclohexyl)-7-methyl-2-((7-methyl-[1,2,4]triazolo[1,5-a]pyridin-6-yl)amino)-7,9-dihydro-8H-purin-8-one] | > 10 µM | 5.5 | > 10 µM | > 10 µM | > 10 µM | > 10 µM | – | – | –
2 | Cc1cc2ncnn2cc1Nc1ncc2c(n1)n([C@H]1CC[C@@H](O)CC1)c(=O)n2C [Example 2, 9-((1s,4s)-4-hydroxycyclohexyl)-7-methyl-2-((7-methyl-[1,2,4]triazolo[1,5-a]pyridin-6-yl)amino)-7,9-dihydro-8H-purin-8-one] | > 10 µM | 6.1 | > 10 µM | > 10 µM | > 10 µM | > 10 µM | – | – | –
3 | Cc1cc2ncnn2cc1Nc1ncc2c(n1)n(C1CCOCC1)c(=O)n2C [Example 3, 7-methyl-2-((7-methyl-[1,2,4]triazolo[1,5-a]pyridin-6-yl)amino)-9-(tetrahydro-2H-pyran-4-yl)-7,9-dihydro-8H-purin-8-one] | > 10 µM | – | > 10 µM | > 10 µM | > 10 µM | > 10 µM | – | – | –
4 | Cc1nc2cc(C)c(Nc3ncc4c(n3)n(C3CCOCC3)c(=O)n4C)cn2n1 [Example 4, 2-((2,7-dimethyl-[1,2,4]triazolo[1,5-a]pyridin-6-yl)amino)-7-methyl-9-(tetrahydro-2H-pyran-4-yl)-7,9-dihydro-8H-purin-8-one] | > 10 µM | 5.1 | > 10 µM | > 10 µM | > 10 µM | > 10 µM | 0.00126 µM | 0.158 µM | –
5 | CO[C@H]1CC[C@@H](n2c(=O)n(C)c3cnc(Nc4cn5ncnc5cc4C)nc32)CC1 [Example 5, 9-((1s,4s)-4-methoxycyclohexyl)-7-methyl-2-((7-methyl-[1,2,4]triazolo[1,5-a]pyridin-6-yl)amino)-7,9-dihydro-8H-purin-8-one] | > 10 µM | 5.3 | > 10 µM | > 10 µM | > 10 µM | > 10 µM | 0.001 µM | 0.126 µM | –
6 | CO[C@H]1CC[C@H](n2c(=O)n(C)c3cnc(Nc4cn5ncnc5cc4C)nc32)CC1 [Example 6, 9-((1r,4r)-methoxycyclohexyl)-7-methyl-2-((7-methyl-[1,2,4]triazolo[1,5-a]pyridin-6-yl)amino)-7,9-dihydro-8H-purin-8-one] | > 10 µM | 5.9 | > 10 µM | > 10 µM | > 10 µM | > 10 µM | 0.000251 µM | 0.0398 µM | –
7 | Cc1cc2ncnn2cc1Nc1ncc2c(n1)n([C@H]1CCCOC1)c(=O)n2C [Example 7, (S)-7-methyl-2-((7-methyl-[1,2,4]triazolo[1,5-a]pyridin-6-yl)amino)-9-(tetrahydro-2H-pyran-3-yl)-7,9-dihydro-8H-purin-8-one] | > 10 µM | 5.2 | > 10 µM | > 10 µM | > 10 µM | > 10 µM | 0.000158 µM | 0.0501 µM | –
8 | Cc1cc2ncnn2cc1Nc1ncc2c(n1)n([C@@H]1CCCOC1)c(=O)n2C [Example 8, (R)-7-methyl-2-((7-methyl-[1,2,4]triazolo[1,5-a]pyridin-6-yl)amino)-9-(tetrahydro-2H-pyran-3-yl)-7,9-dihydro-8H-purin-8-one] | > 10 µM | 5.2 | > 10 µM | > 10 µM | > 10 µM | > 10 µM | 0.000398 µM | 0.0631 µM | –
9 | Cc1cc2ncnn2cc1Nc1ncc2c(n1)n([C@H]1CC[C@](C)(O)CC1)c(=O)n2C [Example 9, 9-((1r,4r)-4-hydroxy-4-methylcyclohexyl)-7-methyl-2-((7-methyl-[1,2,4]triazolo[1,5-a]pyridin-6-yl)amino)-7,9-dihydro-8H-purin-8-one] | > 10 µM | – | > 10 µM | > 10 µM | > 10 µM | > 10 µM | – | – | –
10 | Cc1cc2ncnn2cc1Nc1ncc2c(n1)n([C@H]1CC[C@@](C)(O)CC1)c(=O)n2C [Example 10, 9-((1s,4s)-4-hydroxy-4-methylcyclohexyl)-7-methyl-2-((7-methyl-[1,2,4]triazolo[1,5-a]pyridin-6-yl)amino)-7,9-dihydro-8H-purin-8-one] | > 10 µM | – | > 10 µM | > 10 µM | > 10 µM | > 10 µM | – | – | –
11 | Cc1cc2ncnn2cc1Nc1ncc2c(n1)n([C@H]1CCOC1)c(=O)n2C [Example 11, (S)-7-methyl-2-((7-methyl-[1,2,4]triazolo[1,5-a]pyridin-6-yl)amino)-9-(tetrahydrofuran-3-yl)-7,9-dihydro-8H-purin-8-one] | > 10 µM | – | > 10 µM | > 10 µM | > 10 µM | > 10 µM | 0.000501 µM | 0.158 µM | > 7.94 µM
12 | Cc1cc2ncnn2cc1Nc1ncc2c(n1)n([C@]1(C)CC[C@H](O)CC1)c(=O)n2C [Example 12, 9-((1s,4s)-4-hydroxy-1-methylcyclohexyl)-7-methyl-2-((7-methyl-[1,2,4]triazolo[1,5-a]pyridin-6-yl)amino)-7,9-dihydro-8H-purin-8-one] | > 10 µM | 5.8 | > 10 µM | > 10 µM | > 10 µM | > 10 µM | 0.0002 µM | 0.0398 µM | –
13 | Cc1cc2ncnn2cc1Nc1ncc2c(n1)n(C1CCCCC1)c(=O)n2C [Example 13, 9-cyclohexyl-7-methyl-2-((7-methyl-[1,2,4]triazolo[1,5-a]pyridin-6-yl)amino)-7,9-dihydro-8H-purin-8-one] | 3.98 µM | 6.3 | > 10 µM | > 10 µM | > 10 µM | > 10 µM | – | – | –
